From patent US20060264460A1 (Wyeth, priority 2005, published 2006)
Each block holds one compound with its values, some of them ahead of it.

Molecular target: T1, human Cot/Tpl2 kinase (Homo sapiens, UniProt P41279)
T1 construct: human Cot/Tpl2 kinase construct encoding residues 30-398; 6His (N); made in house; host or cells: Sf9 insect cells, baculovirus system (BD Biosciences)
Test: Tpl2/Cot kinase assay: GST-MEK1 phosphorylation detected by ELISA (DELFIA Eu)
Format: biochemical
In short: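 Substrate phosphorylation (GST-MEK1 Ser217/221) quantified by DELFIA europium ELISA, yielding IC50 values. Reaction: 1 h at 30° C, pH 7.2 MOPS buffer, 50 uM ATP, 35 nM GST-MEK1, 0.4 nM monomeric His-Tpl2 purified from Sf9 cells, compounds at 1% final DMSO; stopped with EDTA.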

[1] = 0.4 nM Tpl2, 35 nM GST-MEK1, 50 uM ATP, 1 h at 30° C.
[2] = Tpl2/Cot kinase, GST-MEK1 substrate, 50 uM ATP, 1 h at 30° C., Table 2
[3] = Tpl2/Cot kinase, GST-MEK1 substrate, 50 uM ATP
[4] = Table 2, Tpl2/Cot kinase, GST-MEK1 substrate, 50 uM ATP

T1 sequence (P41279 30-398): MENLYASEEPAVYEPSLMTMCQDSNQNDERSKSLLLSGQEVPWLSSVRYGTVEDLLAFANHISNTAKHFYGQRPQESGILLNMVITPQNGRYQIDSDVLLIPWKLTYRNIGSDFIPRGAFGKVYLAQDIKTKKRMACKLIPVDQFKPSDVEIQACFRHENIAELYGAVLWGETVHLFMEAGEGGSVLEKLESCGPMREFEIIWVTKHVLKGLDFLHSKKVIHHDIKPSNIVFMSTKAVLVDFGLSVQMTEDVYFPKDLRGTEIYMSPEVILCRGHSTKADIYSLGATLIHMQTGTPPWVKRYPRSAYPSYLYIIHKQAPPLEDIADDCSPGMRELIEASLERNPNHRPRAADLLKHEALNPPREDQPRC

SMILES: N#Cc1cnc2c(Br)cc(NCc3cn(CCN)nn3)cc2c1Nc1ccc(F)c(Cl)c1 [Example 304, 6-{[1-(2-Amino-ethyl)-1H-[1,2,3]triazol-4-ylmethyl]-amino}-8-bromo-4-(3-chloro-4-fluoro-phenylamino)-quinoline-3-carbonitrile]
IC50 [1]: 0.017 µM

SMILES: CN(C)C(=O)c1cc(NCc2cccnc2)cc2c(Nc3ccc(F)c(Cl)c3)c(C#N)cnc12 [Example 94, 4-(3-chloro-4-fluorophenylamino)-3-cyano-N,N-dimethyl-6-(pyridin-3-ylmethylamino)quinoline-8-carboxamide]
IC50 [1]: 0.53 µM

SMILES: CC(C)(C)OC(=O)N1CCCC(CNc2ccc3ncc(C#N)c(Nc4ccc(F)c(Cl)c4)c3c2)C1 (stereo not drawn) [Example 63, 3-{[4-(3-Chloro-4-fluoro-phenylamino)-3-cyano-quinolin-6-ylamino]-methyl}-piperidine-1-carboxylic acid tert-butyl ester]
IC50 [1]: > 40 µM

SMILES: CN(C)CCSc1cc2ncc(C#N)c(Nc3ccc(F)c(Cl)c3)c2cc1NCc1cnc[nH]1 [Example 163, 6-((1H-imidazol-5-yl)methylamino)-4-(3-chloro-4-fluorophenylamino)-7-(2-(dimethylamino)ethylthio)quinoline-3-carbonitrile]
IC50 [1]: 0.15 µM

SMILES: N#Cc1cnc2c(Br)cc(NCc3csnn3)cc2c1Nc1ccc(F)c(Cl)c1 [Example 302, 8-Bromo-4-(3-chloro-4-fluoro-phenylamino)-6-[([1,2,3]thiadiazol-4-ylmethyl)-amino]-quinoline-3-carbonitrile]
IC50 [1]: 0.021 µM

SMILES: N#Cc1cnc2c(NC(=O)c3ccccc3)cc(NCc3cccnc3)cc2c1Nc1cccc(Cl)c1 [Example 73, N-(4-(3-chlorophenylamino)-3-cyano-6-(pyridin-3-ylmethylamino)quinolin-8-yl)benzamide]
IC50 [1]: > 40 µM

SMILES: N#Cc1cnc2c(Cl)cc(NCc3cncn3O)cc2c1Nc1ccc(F)c(Cl)c1 [Example 438]
IC50 [4]: 0.11 µM

SMILES: N#Cc1cnc2ccc(NCc3ccoc3)cc2c1Nc1ccc(F)c(Cl)c1 [Example 5, 4-(3-Chloro-4-fluoro-phenylamino)-6-[(furan-3-ylmethyl)-amino]-quinoline-3-carbonitrile]
IC50 [1]: 0.37 µM

SMILES: N#Cc1cnc2ccc(N)cc2c1NC1CCCC1 [Example 402]
IC50 [4]: > 40 µM

SMILES: N#Cc1cnc2c(Br)cc(NCc3cn(-c4ccc(C(=O)O)cc4)nn3)cc2c1Nc1ccc(F)c(Cl)c1 [Example 292, 4-(4-{[8-Bromo-4-(3-chloro-4-fluoro-phenylamino)-3-cyano-quinolin-6-ylamino]-methyl}-[1,2,3]triazol-1-yl)-benzoic acid]
IC50 [1]: 0.0035 µM

SMILES: CN(C)C(=O)OCCCn1cc(CNc2cc(Cl)c3ncc(C#N)c(Nc4ccc(F)c(Cl)c4)c3c2)nn1 [Example 582]
IC50 [4]: 0.016 µM

SMILES: N#Cc1cnc2ccc(NCc3cccnc3)cc2c1NC1CCCC1 [Example 418]
IC50 [4]: 2.6 µM

Results, then the compound that gave them:

IC50 [2]: 0.052 µM
SMILES: CN1C(C)(C)CC(n2cc(CNc3cc(Cl)c4ncc(C#N)c(Nc5ccc(F)c(Cl)c5)c4c3)nn2)CC1(C)C [Example 1043]

IC50 [3]: 0.0005 µM
SMILES: CCNC(=O)N1CCC[C@H]1Cn1cc(CNc2cc(Cl)c3ncc(C#N)c(Nc4ccc(F)c(Cl)c4)c3c2)nn1 [Example 902]

IC50 [3]: 0.093 µM
SMILES: CN(C)CC(c1ccccc1)n1cc(CNc2cc(Br)c3ncc(C#N)c(Nc4ccc(F)c(Cl)c4)c3c2)nn1 (stereo not drawn) [Example 739]

IC50 [4]: > 3 µM
SMILES: N#Cc1cnc2c(Br)cc(NCc3cn(COCc4ccccc4)nn3)cc2c1Nc1ccc(F)c(Cl)c1 [Example 638]

IC50 [3]: 0.65 µM
SMILES: N#Cc1cnc2c(Cl)cc(NCCNC(=O)c3cncnc3)cc2c1Nc1ccc(F)c(Cl)c1 [Example 864]

IC50 [3]: 0.014 µM
SMILES: N#Cc1cnc2c(Cl)cc(NCc3cn(C4CCOCC4)nn3)cc2c1Nc1ccc(F)c(Cl)c1 [Example 734]

IC50 [3]: 0.0025 µM
SMILES: N#Cc1cnc2c(Br)cc(NCc3cn(Cc4cncnc4)nn3)cc2c1Nc1ccc(F)c(Cl)c1 [Example 880]

IC50 [2]: 0.007 µM
SMILES: CN(C)C(=O)N1CCC(n2cc(CNc3cc(Cl)c4ncc(C#N)c(Nc5ccc(F)c(Cl)c5)c4c3)nn2)CC1 [Example 929]

IC50 [3]: 0.0055 µM
SMILES: N#Cc1cnc2c(Br)cc(NCc3cn(-c4ccncc4)nn3)cc2c1Nc1ccc(F)c(Cl)c1 [Example 729]
